Where “and” joins values, the source holds several entries; their conditions need not be identical. Equal values may be shown once.
System: Human peripheral blood mononuclear cells (PBMCs)
Experiment: Generational tracking of cell proliferation by dye dilution, flow cytometry
Assay type: cell-based
Conditions: PBMCs stained with 10 mM stock at 1 μL per mL of cells, 20 min; stimulated with Interleukin-2 and CD3/CD28 DYNABEADS; 355 nm laser, 450/50 bandpass emission filter
Protocol: 20 mL whole blood were added to 20 mL DPBS and mixed well. 15 mL FICOLL-PAQUE® PLUS (GE Healthcare) were added to each of two 50 mL centrifuge tubes. 20 mL of the diluted whole blood was carefully layered on top. The tube containing the whole blood was centrifuged for 30 min at 400×g and the peripheral blood mononuclear cell (PBMC) layer was carefully removed. The cells were resuspended in 25 mL DPBS in a 50 mL centrifuge tube and centrifuged for 5 min at 400×g. The supernatant was decanted and the cells were resuspended in 10 mL DPBS. Cells were counted on a COUNTESS Automated Cell Counter (Thermo Fisher Scientific) with the concentration adjusted to 1×10^6 cells/mL in DPBS.
20 μL anhydrous DMSO was added to a vial of dry Compound 1 (64 μg) at room temperature. 1 mL of unstained cells was reserved as a control. Cells were labeled with 1 μL of 10 mM Compound 1, per milliliter of cell suspension. The tubes were immediately vortexed for 30 sec and the cells were incubated for 20 min at room temperature, protected from light. […]
2 mL of each sample were removed by first mixing sample with a pipet then transferring them to their own tubes. […] Cells were counted on a COUNTESS Automated Cell Counter with the concentration adjusted to 1×10^6 cells/mL in DPBS. […]

COc1ccc2cc(C(=O)ON3C(=O)CCC3=O)c(=O)oc2c1 [Compound 1]
time over which cell proliferation was followed (discrete peaks of successive generations of live, CD4 positive cells): 7 days and 6 days
